In US10758534B2 (Vertex Pharmaceuticals Incorporated, priority 2014, dated 2020):

Molecular target: T1, F508del (Homo sapiens, UniProt P13569, DEL508-508)
T1 construct: expressed in transfected cells
Assay: Protocol 2: FRET membrane potential optical assay (VIPR), identification of correction compounds
Format: cell-based
Conditions: F508del CFTR modulator activity; compounds of Table 1; read-out: EC30
Procedure, shortened: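 NIH3T3 mouse fibroblasts stably expressing F508del-CFTR incubated with compound 16 h at 37 °C in serum-free medium, then loaded with CC2-DMPE/DiSBAC2(3) FRET dyes. Channel activated with 10 μM forskolin plus 20 μM genistein in Cl⁻-free (gluconate) bath; depolarisation from Cl⁻ efflux read on VIPR II.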

T1 sequence (P13569 with tags, fused parts or gaps DEL508-508): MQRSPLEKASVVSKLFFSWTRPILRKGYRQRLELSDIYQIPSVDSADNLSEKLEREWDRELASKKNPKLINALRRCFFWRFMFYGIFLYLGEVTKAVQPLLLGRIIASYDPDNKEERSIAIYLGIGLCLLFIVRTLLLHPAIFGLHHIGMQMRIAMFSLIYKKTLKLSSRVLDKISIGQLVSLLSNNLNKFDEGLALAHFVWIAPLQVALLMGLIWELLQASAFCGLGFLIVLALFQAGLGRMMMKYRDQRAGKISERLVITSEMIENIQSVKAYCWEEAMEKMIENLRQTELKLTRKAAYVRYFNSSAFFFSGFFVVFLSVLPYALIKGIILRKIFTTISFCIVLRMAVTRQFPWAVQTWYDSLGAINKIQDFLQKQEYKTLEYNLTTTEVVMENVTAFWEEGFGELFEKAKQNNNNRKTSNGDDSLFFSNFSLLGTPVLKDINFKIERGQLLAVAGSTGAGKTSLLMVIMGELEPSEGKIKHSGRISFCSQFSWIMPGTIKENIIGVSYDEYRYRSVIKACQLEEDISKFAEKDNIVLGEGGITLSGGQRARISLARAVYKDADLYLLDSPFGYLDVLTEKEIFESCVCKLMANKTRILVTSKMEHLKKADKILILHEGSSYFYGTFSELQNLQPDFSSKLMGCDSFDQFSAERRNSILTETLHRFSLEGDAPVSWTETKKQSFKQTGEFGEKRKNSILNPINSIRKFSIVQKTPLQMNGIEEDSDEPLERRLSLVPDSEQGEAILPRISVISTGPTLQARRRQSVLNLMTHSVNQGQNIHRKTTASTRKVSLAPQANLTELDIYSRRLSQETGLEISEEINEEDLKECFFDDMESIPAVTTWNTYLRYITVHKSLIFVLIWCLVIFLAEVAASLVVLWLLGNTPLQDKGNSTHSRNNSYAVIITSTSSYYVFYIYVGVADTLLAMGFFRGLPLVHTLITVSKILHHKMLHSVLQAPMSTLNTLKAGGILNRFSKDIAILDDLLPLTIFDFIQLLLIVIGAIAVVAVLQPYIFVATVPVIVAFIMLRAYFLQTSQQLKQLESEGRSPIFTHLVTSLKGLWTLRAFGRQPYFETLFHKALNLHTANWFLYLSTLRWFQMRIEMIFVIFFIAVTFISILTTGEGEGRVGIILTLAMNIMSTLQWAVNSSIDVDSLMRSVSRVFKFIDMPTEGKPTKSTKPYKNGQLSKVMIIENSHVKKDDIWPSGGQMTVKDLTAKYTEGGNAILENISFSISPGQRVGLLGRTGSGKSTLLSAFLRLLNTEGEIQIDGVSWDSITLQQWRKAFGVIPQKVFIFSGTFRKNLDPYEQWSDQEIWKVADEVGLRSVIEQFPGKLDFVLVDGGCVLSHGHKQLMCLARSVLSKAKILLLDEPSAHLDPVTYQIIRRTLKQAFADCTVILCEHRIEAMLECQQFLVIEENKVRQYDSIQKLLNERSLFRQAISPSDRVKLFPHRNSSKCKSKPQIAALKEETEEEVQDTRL

CCOc1cc(-c2ccc(C(=O)NS(=O)(=O)c3ccc[nH]c3=O)c(N3C[C@@H](C)CC3(C)C)n2)ccc1F [Compound 2459, 6-(3-ethoxy-4-fluoro-phenyl)-N-[(2-oxo-1H-pyridin-3-yl)sulfonyl]-2-[(4S)-2,2,4-trimethylpyrrolidin-1-yl]pyridine-3-carboxamide]
EC30: < 3000 nM

Cc1ccc(Oc2cccc(S(=O)(=O)NC(=O)c3cccnc3N3CC(C)CC3(C)C)n2)cc1 (stereo not drawn) [Compound 2460, N—[[6-(4-methylphenoxy)-2-pyridyl]sulfonyl]-2-(2,2,4-trimethylpyrrolidin-1-yl)pyridine-3-carboxamide]
EC30: < 3000 nM

CC1CN(c2ncccc2C(=O)NS(=O)(=O)c2cccc(Oc3cccc(Cl)c3)n2)C(C)(C)C1 (stereo not drawn) [Compound 2461, N—[[6-(3-chlorophenoxy)-2-pyridyl]sulfonyl]-2-(2,2,4-trimethylpyrrolidin-1-yl)pyridine-3-carboxamide]
EC30: < 3000 nM

CC1CN(c2ncccc2C(=O)NS(=O)(=O)c2cccc(OCc3cc(F)cc(F)c3)n2)C(C)(C)C1 (stereo not drawn) [Compound 2462, N—[[6-[(3,5-difluorophenyl)methoxy]-2-pyridyl]sulfonyl]-2-(2,2,4-trimethylpyrrolidin-1-yl)pyridine-3-carboxamide]
EC30: < 3000 nM

CC1CN(c2ncc(-c3ccc(C(C)(C)C)cc3)cc2C(=O)NS(=O)(=O)c2cccc(N)n2)C(C)(C)C1 (stereo not drawn) [Compound 2463, N-[(6-amino-2-pyridyl)sulfonyl]-5-(4-tert-butylpenyl)-2-(2,2,4-trimethylpyrrolidin-1-yl)pyridine-3-carboxamide]
EC30: < 3000 nM

CC1CN(c2ncccc2C(=O)NS(=O)(=O)c2cccc(N3CCOCC3)n2)C(C)(C)C1 (stereo not drawn) [Compound 2464, N-[(6-morpholino-2-pyridyl)sulfonyl]-2-(2,2,4-trimethylpyrrolidin-1-yl)pyridine-3-carboxamide]
EC30: 3000 to 10000 nM

COc1cccc(CCNc2cccc(S(=O)(=O)NC(=O)c3cccnc3N3CC(C)CC3(C)C)n2)c1 (stereo not drawn) [Compound 2465, N—[[6-[2-(3-methoxyphenyl)ethylamino]-2-pyridyl]sulfonyl]-2-(2,2,4-trimethylpyrrolidin-1-yl)pyridine-3-carboxamide]
EC30: < 3000 nM

CC1CN(c2ncccc2C(=O)NS(=O)(=O)c2cccc(Nc3ccc(C(F)(F)F)nc3)n2)C(C)(C)C1 (stereo not drawn) [Compound 2466, N—[[6-[[6-(trifluoromethyl)-3-pyridyl]amino]-2-pyridyl]sulfonyl]-2-(2,2,4-trimethylpyrrolidin-1-yl)pyridine-3-carboxamide]
EC30: < 3000 nM

CC(C)Cc1ccc(C(=O)NS(=O)(=O)c2ccc[nH]c2=O)c(N2C[C@@H](C)CC2(C)C)n1 [Compound 2467, 6-isobutyl-N-[(2-oxo-1H-pyridin-3-yl)sulfonyl]-2-[(4S)-2,2,4-trimethylpyrrolidin-1-yl]pyridine-3-carboxamide]
EC30: < 3000 nM

C[C@@H]1CN(c2nc(-c3ccc4cc(O)ccc4c3)ccc2C(=O)NS(=O)(=O)c2cccnc2N)C(C)(C)C1 [Compound 2468, N-[(2-amino-3-pyridyl)sulfonyl]-6-(6-hydroxy-2-naphthyl)-2-[(4S)-2,2,4-trimethylpyrrolidin-1-yl]pyridine-3-carboxamide]
EC30: < 3000 nM

COc1ccc(-c2ccc(C(=O)NS(=O)(=O)c3ccc[nH]c3=O)c(N3C[C@@H](C)CC3(C)C)n2)c(C)c1 [Compound 2469, 6-(4-methoxy-2-methyl-phenyl)-N-[(2-oxo-1H-pyridin-3-yl)sulfonyl]-2-[(4S)-2,2,4-trimethylpyrrolidin-1-yl]pyridine-3-carboxamide]
EC30: 3000 to 10000 nM

CC1CN(c2ncccc2C(=O)NS(=O)(=O)c2cccc(O[C@H](C)Cc3ccccc3)n2)C(C)(C)C1 (stereo partly drawn) [Compound 2470, N—[[6-[(1R)-1-methyl-2-phenyl-ethoxy]-2-pyridyl]sulfonyl]-2-(2,2,4-trimethylpyrrolidin-1-yl)pyridine-3-carboxamide]
EC30: < 3000 nM
